Reference: patent US20260158009A1 (GENZYME CORPORATION, priority 2023, published 2026)

Tests used:
[1] = target: T1, hRIPK1 (aa 1-375) fusion protein (Homo sapiens, UniProt Q13546); assay: ADP-Glo kinase assay: catalytic activity of RIPK1 (autophosphorylation, conversion of ATP to ADP); assay type: biochemical
T1 construct: hRIPK1 (aa 1-375) fusion protein
T1 sequence (Q13546 1-375): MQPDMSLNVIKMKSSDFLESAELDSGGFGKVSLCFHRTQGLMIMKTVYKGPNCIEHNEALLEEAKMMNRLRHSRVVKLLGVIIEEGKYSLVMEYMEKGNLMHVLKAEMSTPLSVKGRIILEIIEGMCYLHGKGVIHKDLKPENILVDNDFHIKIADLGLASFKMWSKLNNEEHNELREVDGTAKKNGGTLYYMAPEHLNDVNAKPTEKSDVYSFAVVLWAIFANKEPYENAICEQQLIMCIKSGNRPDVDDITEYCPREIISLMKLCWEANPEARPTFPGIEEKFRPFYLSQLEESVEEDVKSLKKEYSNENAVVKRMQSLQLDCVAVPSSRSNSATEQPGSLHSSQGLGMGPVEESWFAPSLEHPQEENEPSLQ
Procedure, shortened: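 The readout was ADP-Glo luminescence after a 240 min rt autophosphorylation reaction with 50 μM ATP, following 30 min preincubation of 3.6 μg/ml hRIPK1 (aa 1-375) fusion with compound at 33300-1.69 nM final in 1% DMSO. Values came from Levenberg-Marquardt nonlinear fits.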

[2] = system: U937 cells; assay: Cellular assay in U937 cells: activity of RIPK1 inhibitors on TNFα/zVAD.fmk-induced cell death (necroptosis), CellTiter 96 AQueous (MTS) readout; assay type: cell-based; details: Homo sapiens, U-937
Procedure, shortened: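 Necroptosis was measured by viable-cell MTS reduction (4 h, absorbance 490 nm) after overnight (18–24 h) 37° C culture. Cell suspensions of U937 cells carried TNFα (100 ng/ml) plus zVAD.fmk (50 μM) before compound was added. A 10-point curve (10 μM–0.26 nM or 1 μM–0.07 nM) was run in duplicate, normalised to the control lacking TNFα/zVAD.fmk.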

| SMILES | IC50 [1] | IC50 [2] |
| --- | --- | --- |
| Cc1cn2ncc(C[C@H]3CC[C@H](C(=O)N4OCC[C@H]4c4csc(C)n4)CC3)cc2n1 [compound 371, trans-[4-(2-Methyl-imidazo[1,2-b]pyridazin-7-ylmethyl)-cyclohexyl]-[(S)-3-(2-methyl-thiazol-4-yl)-isoxazolidin-2-yl]-methanone] | 0.065 µM | 0.147 µM |
| Cc1nc2cc(C[C@H]3CC[C@H](C(=O)N4OCC[C@H]4c4csc(C)n4)CC3)ccn2n1 [compound 372, trans-[(S)-3-(2-Methyl-thiazol-4-yl)-isoxazolidin-2-yl]-[4-(2-methyl-[1,2,4]triazolo[1,5-a]pyridin-7-ylmethyl)-cyclohexyl]-methanone] | 0.053 µM | 0.103 µM |
| Cc1ccc([C@@H]2CCON2C(=O)[C@H]2CC[C@H](Cc3ccn4nc(C)nc4c3)CC2)cn1 [compound 373, trans-[(S)-3-(6-Methyl-pyridin-3-yl)-isoxazolidin-2-yl]-[4-(2-methyl-[1,2,4]triazolo[1,5-a]pyridin-7-ylmethyl)-cyclohexyl]-methanone] | 0.11 µM | 0.078 µM |
| Cc1nc2cc(C[C@H]3CC[C@H](C(=O)N4OCC[C@H]4c4cnccn4)CC3)ccn2n1 [compound 374, trans-[4-(2-Methyl-[1,2,4]triazolo[1,5-a]pyridin-7-ylmethyl)-cyclohexyl]-((S)-3-pyrazin-2-yl-isoxazolidin-2-yl)-methanone] | 0.036 µM | 0.055 µM |
| Cc1nc([C@@H]2CCON2C(=O)[C@H]2CC[C@H](Cc3ccc4nnc(C)n4c3C)CC2)cs1 [compound 375, [4-(3,5-Dimethyl-[1,2,4]triazolo[4,3-a]pyridin-6-ylmethyl)-cyclohexyl]-[(S)-3-(2-methyl-thiazol-4-yl)-isoxazolidin-2-yl]-methanone] | 0.063 µM | 0.01 µM |
| Cc1ccc([C@@H]2CCON2C(=O)[C@H]2CC[C@H](Cc3ccc4nnc(C)n4c3C)CC2)cn1 [compound 376, [4-(3,5-Dimethyl-[1,2,4]triazolo[4,3-a]pyridin-6-ylmethyl)-cyclohexyl]-[(S)-3-(6-methyl-pyridin-3-yl)-isoxazolidin-2-yl]-methanone] | 0.075 µM | 0.09 µM |
| Cc1cc(C[C@H]2CC[C@H](C(=O)N3OCC[C@H]3c3coc(C)n3)CC2)c(C)cn1 [compound 377, trans-[4-[(2,5-dimethylpyridin-4-yl)methyl]cyclohexyl]-[(3S)-3-(2-methyl-1,3-oxazol-4-yl)-1,2-oxazolidin-2-yl]methanone] | 0.035 µM | 0.036 µM |
| Cc1cncc([C@@H]2CCON2C(=O)[C@H]2CC[C@H](Cc3cc(C)c4nc(C)nn4c3)CC2)c1 [compound 378, trans-[4-[(2,8-dimethyl-[1,2,4]triazolo[1,5-a]pyridin-6-yl)methyl]cyclohexyl]-[(3S)-3-(5-methylpyridin-3-yl)-1,2-oxazolidin-2-yl]methanone] | 0.059 µM | 0.095 µM |
| Cc1cnc([C@@H]2CCON2C(=O)[C@H]2CC[C@H](Cc3cc(F)c4nc(C)nn4c3)CC2)cn1 [compound 379, trans-[4-[(8-fluoro-2-methyl-[1,2,4]triazolo[1,5-a]pyridin-6-yl)methyl]cyclohexyl]-[(3S)-3-(5-methylpyrazin-2-yl)-1,2-oxazolidin-2-yl]methanone] | 0.05 µM | 0.191 µM |
| Cc1nc2c(F)cc(C[C@H]3CC[C@H](C(=O)N4OCC[C@H]4c4cncc(F)c4)CC3)cn2n1 [compound 380] | 0.07 µM | 0.129 µM |
| Cc1nc2c(Cl)cc(C[C@H]3CC[C@H](C(=O)N4OCC[C@H]4c4cnc(C)c(F)c4)CC3)cn2n1 [compound 381, [4-[(8-chloro-2-methyl-[1,2,4]triazolo[1,5-a]pyridin-6-yl)methyl]cyclohexyl]-[(3S)-3-(5-fluoro-6-methylpyridin-3-yl)-1,2-oxazolidin-2-yl]methanone] | 0.031 µM | 0.008 µM |
